Broadly, the Ki is the equilibrium dissociation constant of an inhibitor or competing ligand from its target.

Each structure is given as a SMILES string.

For the test, the target named is Carbonic anhydrase 9 (Homo sapiens, UniProt Q16790).
Turning to `CN1CCN(CC(=O)Nc2nnc(S(N)(=O)=O)s2)CC1`, the Ki came to 31 nM.

The molecule `NS(=O)(=O)c1ccc(NC(=O)CN2CCOCC2)cc1` had an inhibitory constant (Ki) of 181 nM.

On to `CC1CCN(CCCC(=O)Nc2ccc(S(N)(=O)=O)cc2)CC1`, for which affinity was put at a Ki of 90 nM.

In turn, `CC1CCN(CCC(=O)Nc2ccc(S(N)(=O)=O)cc2)CC1` showed a Ki of 197 nM.

`NS(=O)(=O)c1ccc(NC(=O)CCN2CCC(Cc3ccccc3)CC2)cc1` gave a Ki of 248 nM.

`NS(=O)(=O)c1nnc(NC(=O)CN2CCOCC2)s1` displayed a Ki of 22 nM.

`NS(=O)(=O)c1ccc(NC(=O)CCN2CCN(Cc3ccccc3)CC2)cc1` yielded an inhibitory constant (Ki) of 240 nM.

The molecule `CC1CCN(CC(=O)Nc2nnc(S(N)(=O)=O)s2)CC1` showed a Ki of 35 nM.

For the molecule `NS(=O)(=O)c1ccc(NC(=O)CCCCN2CCOCC2)cc1`, the affinity, expressed as Ki, was 163 nM.

The molecule `NS(=O)(=O)c1nnc(NC(=O)CN2CCN(Cc3ccccc3)CC2)s1` registered a Ki of 67 nM.

`CN1CCN(CCC(=O)Nc2ccc(S(N)(=O)=O)cc2)CC1` came in with a Ki of 235 nM.

For the molecule `NS(=O)(=O)c1ccc(NC(=O)CCN2CCOCC2)cc1`, the affinity, expressed as Ki, was 184 nM.

On to `NS(=O)(=O)c1ccc(NC(=O)CCCN2CCOCC2)cc1`, for which the Ki was found to be 246 nM.

`CN1CCN(CCC(=O)Nc2nnc(S(N)(=O)=O)s2)CC1`: the Ki is 33 nM.
